Measured values from US20190352297A1, “SELECTIVE AURORA A KINASE INHIBITORS” (UNIVERSITAT BERN, priority 2017, published 2019).
Positions count from the first letter of the chain named. Where two headings read alike, the source gives them in different places.

Experiments:
[1] = biological target: T1, Aurora A bound to TPX2 (Homo sapiens, UniProt O14965); experiment: Aurora A kinase activity and inhibition in the presence of TPX2; assay type: biochemical; conditions: TPX2 present
T1 construct: human Aurora A kinase domain (residues 122-403 in the pET24-d vector); His-tag (cleaved yes); made in house; host or cells: E. coli
T1 sequence (O14965 122-403): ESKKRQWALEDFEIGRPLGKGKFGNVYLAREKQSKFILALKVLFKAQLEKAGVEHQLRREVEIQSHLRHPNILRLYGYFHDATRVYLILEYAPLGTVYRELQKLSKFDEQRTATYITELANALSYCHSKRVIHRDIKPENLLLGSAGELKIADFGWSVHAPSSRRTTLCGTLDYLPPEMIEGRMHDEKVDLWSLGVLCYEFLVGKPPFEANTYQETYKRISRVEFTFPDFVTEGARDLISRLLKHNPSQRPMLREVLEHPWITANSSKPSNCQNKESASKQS
Method: Aurora A and AuroraB kinases were assayed using the homogeneous time-resolved fluorescence (HTRF) KinEASE STK2 kit from Cisbio (France). […] For both enzymes, the reactions were run for 30 min at room temperature and stopped by the addition of 10 μL of detection buffer containing EDTA, antiphospho-Ser/Thr antibody labelled with europium cryptate, and XL-665 conjugated streptavidin (62.5 nM final concentration). After incubation at room temperature for one hour, fluorescence was measured at 620 nm (europium cryptate) and 665 nm (XL-665) after excitation at 317 nm (lag time 60 μs, integration time 500 μs) using a Tecan Infinite M1000 PRO microplate reader (Greiner 384-well plates, white, non-binding, small volume). The ratio of fluorescence (665 nm/620 nm) was calculated for each well and the results were expressed as follows: specific signal=ratio (sample)−ratio (negative control), where ratio=665 nm/620 nm×10^4. […] Each concentration was measured in duplicates, and two independent determinations were made for each IC50 value. IC50 curves were generated using a four-parameter logistic model (XLfit from IDBS).

[2] = tested on: pThr288 Aurora A; experiment: Phosphorylation of Aurora A Thr288 in cells; assay type: cell-based, human; conditions: cells; read-out: cellular IC50 (pT288), phosphorylation of Aurora A Thr288
Method: (§1) HeLa Kyoto cells were cultured in high-glucose DMEM with GlutaMAX (Life Technologies) media supplemented with 10% fetal calf serum (FCS) in a humidified 5% CO2 incubator at 37° C. For plasmid transfections, cells were seeded at 80-90% confluence. 4 μg of plasmid DNA in 100 μl OptiMEM and 4 μl of Lipofectamine 2000 (Life Technologies) in 100 μl OptiMEM were incubated in parallel for 5 minutes, mixed for 20 minutes and added to each well. All Aurora A clones were constructed using full-length Aurora A as a template with appropriate PCR primer pairs. […] GFP-Aurora AR137A and GFP-Aurora AW277A were engineered using a site directed mutagenesis kit (Agilent Technologies, no. 210515) with appropriate primers. For determining the mitotic index and the chromosome misalignment phenotype, cells were incubated with various concentrations of compounds for 20 h before analysis. Cells were likewise treated with 0.25 μM MLN8237 (Selleckchem, no. S1133) or 5 μM ZM447439 (Selleckchem, no. S1103). For flow cytometry analysis, 50 nM […] and 2.5 μM ZM447439 were used. For rescue experiments, HeLa Kyoto cells were first transfected with GFP-Aurora A, GFP-Aurora AR137A or GFP-Aurora AW277A for 20 h, followed by incubation with 9 for another 20 h before cells were fixed with cold methanol and stained. To assess the impact of compound 9 on cell cycle progression, DNA content was analyzed after propidium iodide staining using FACS (BD Accuri C6 flow cytometer).
For immunofluorescence, cells were fixed in cold methanol, washed in PBT (PBS supplemented with 0.05% Tween-20) and stained with the following primary antibodies: 1:200 rabbit anti-pT288 (Cell Signaling, C39D8), 1:200 rabbit anti-pH3S10 (Cell Signaling, D2C8), 1:500 mouse anti-α-tubulin (Transduction Laboratories, 612709), 1:300 mouse anti-GFP (MAB3580, Millipore), 1:200 anti-TPX2 (Santa Cruz Biotechnology, sc-32863), anti-Aurora A (Invitrogen, 458900). Secondary antibodies were anti-mouse conjugated to Alexa488 or Alexa568, as well as anti-rabbit conjugated to Alexa488 or Alexa568, all used at 1:500 (Invitrogen). […]

[3] = biological target: T2, GFP-Aurora A-Trp277Ala (Homo sapiens, UniProt O14965, W277A); experiment: Phenotypic rescue, cells expressing mutant Aurora A; assay type: cell-based
T2 construct: All Aurora A clones were constructed using full-length Aurora A as a template; expressed in transfected cells; host or cells: HeLa Kyoto
T2 sequence (O14965 1-403 W277A): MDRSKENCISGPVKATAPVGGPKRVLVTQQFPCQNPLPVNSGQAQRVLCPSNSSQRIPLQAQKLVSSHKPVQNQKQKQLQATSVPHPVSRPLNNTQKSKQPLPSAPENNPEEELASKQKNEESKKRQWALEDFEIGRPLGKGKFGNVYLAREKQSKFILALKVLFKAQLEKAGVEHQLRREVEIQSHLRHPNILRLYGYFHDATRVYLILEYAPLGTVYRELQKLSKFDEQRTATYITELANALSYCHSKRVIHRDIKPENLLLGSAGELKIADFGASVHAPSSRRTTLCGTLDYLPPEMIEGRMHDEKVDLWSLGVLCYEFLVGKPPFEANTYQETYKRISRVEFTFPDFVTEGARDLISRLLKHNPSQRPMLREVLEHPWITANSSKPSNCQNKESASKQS
Method: as §1, with “For rescue experiments, HeLa Kyoto cells were first transfected with GFP-Aurora A, GFP-Aurora AR137A or GFP-Aurora AW277A for 20 h, followed by incubation with 9 for another 20 h before cells were fixed with cold methanol and stained.” left out

[4] = biological target: T3, GFP-Aurora A-Arg137Ala (Homo sapiens, UniProt O14965, R137A); experiment: as above; assay type: cell-based
T3 construct: All Aurora A clones were constructed using full-length Aurora A as a template; expressed in transfected cells; host or cells: HeLa Kyoto
T3 sequence (O14965 1-403 R137A): T2 sequence (O14965 1-403 W277A) with R137A, A277W
Method: as §1, with “For rescue experiments, HeLa Kyoto cells were first transfected with GFP-Aurora A, GFP-Aurora AR137A or GFP-Aurora AW277A for 20 h, followed by incubation with 9 for another 20 h before cells were fixed with cold methanol and stained.” left out

[5] = In vitro reactivity towards glutathione (GSH); assay type: physicochemical; conditions: after 24 h with 5 mM GSH, pH 7.4, 37° C.
Method: […] Reaction scheme and structures of modified analogs. b. LC chromatogram of the reaction mixture after t=0 h and t=14 h. […] 9-methylcarbazole (tret=2.44 min) was used as internal control. c. Concentration of compound 9 during the course of the reaction as determined by integration of the absorption peaks (at 310 nm) of compound 9 at tret=1.78 min. The average of two independent experiments is shown, SD is <5% for all data points. d. Aurora A inhibition in the HTRF biochemical assay. (d) Cellular pThr288 Aurora-A levels of cells incubated with 9 or rac-92 overnight at the indicated concentrations. The experiment was repeated twice and the error bars represent SD. […] Numbers represent average IC50±SD of two independent experiments.

[6] = tested on: HeLa Kyoto cells; experiment: Chromosome misalignment during metaphase; assay type: cell-based, human; conditions: for misaligned chromosomes: HeLa Kyoto cells
Method: as §1
For immunofluorescence, cells were fixed in cold methanol, washed in PBT (PBS supplemented with 0.05% Tween-20) and stained with the following primary antibodies: 1:200 rabbit anti-pT288 (Cell Signaling, C39D8), 1:200 rabbit anti-pH3S10 (Cell Signaling, D2C8), 1:500 mouse anti-α-tubulin (Transduction Laboratories, 612709), 1:300 mouse anti-GFP (MAB3580, Millipore), 1:200 anti-TPX2 (Santa Cruz Biotechnology, sc-32863), anti-Aurora A (Invitrogen, 458900). Secondary antibodies were anti-mouse conjugated to Alexa488 or Alexa568, as well as anti-rabbit conjugated to Alexa488 or Alexa568, all used at 1:500 (Invitrogen). Confocal images were acquired on a Zeiss LSM 710 confocal microscope equipped with a Axiocam MRm (B/VVW) CCD camera using a 63×NA 1.0 oil objective and processed in ImageJ and Adobe Photoshop, maintaining relative image intensities within a series.

CCc1ccc(N=C2SC(=Cc3ccnc(Nc4ccc(C(=O)O)cn4)c3)C(=O)N2C)cc1 [Compound 9]
IC50 [1]: 1.4 µM | IC50 [2]: 0.76 µM | sensitivity of GFP-Aurora A-Trp277Ala to inhibitor [3]: insensitive | sensitivity of GFP-Aurora A-Arg137Ala to inhibitor [4]: insensitive | conversion to GSH adduct [5]: 50% | misaligned chromosomes ([6]; 4 μM): ~20% | misaligned chromosomes ([6]; 10 μM): ~80% | misaligned chromosomes ([6]; 25 μM): ~85% | EC50 ([6]; cellular activity as summarised in text, read-out: cellular activity EC50): > 1 µM | EC50 ([6]; read-out: phenotypic EC50, defective chromosome alignment during metaphase): 6 µM
